≈ marks a conversion by molar mass, not a printed value. Structures can show the parent of a compound that is named as a salt. Where two headings read alike, the source gives them in different places.
Columns and labels:
[1] = system: Acinetobacter baumannii ATCC17961; experiment: Antimicrobial susceptibility testing: 90% growth inhibitory concentration (IC90) determination; type: cell-based; conditions: Acinetobacter baumannii, ATCC17961, 16 h, read-out: ATCC 17961 IC90
Summary of the method: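 Growth inhibition derived in log phase from OD600 kinetics (every 20 minutes, 16h, 35±2° C) of ATCC17961 in Iso-Sensitest medium, inoculum ~5×10^5 CFU/ml. Compounds tested as twofold series, 10 points (e.g. 50 to 0.097 μM final); IC90 and IC50 reported.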

[2] = system: Acinetobacter baumannii ATCC17978; experiment: Minimal Inhibitory Concentration (MIC) assay; type: cell-based; conditions: read-out: MIC AB. ATCC17978
Experimental: Minimal Inhibitory Concentration Protocol (MIC) Assay:
Table 2 provides the in vitro potency of the compounds of present invention obtained against the strain Acinetobacter baumannii ATCC17978, which was assessed by an MIC (Minimal Inhibitory Concentration) assay as follows.
Test compounds were prepared from 10 mM DMSO stock solutions. The top dose was diluted from 10 mM to 2.5 mM by DMSO, followed by serial 2-fold 11 points dilutions in DMSO in a master plate (Greiner, Cat No: 651201). 2 μL compounds were transferred from the master plate into a new 96-well assay plate (Costar, 3599).
The growth medium […] Mueller Hinton Broth (CAMHIB) was prepared by adding 22 g powder (BD, 212322) in 1 L purified water, autoclaved, and supplemented with sterilized CaCl2 (20 mg per liter) and MgCl2 (10 mg per liter).
Vials of each of the test microorganisms were maintained frozen in the vapor phase of a liquid nitrogen freezer. Took out the bacterial strain ATCC 17978 from liquid nitrogen freezer, thawed it at room temperature, and diluted the bacterial in the CAMHB medium to achieve a final inoculum of 2×10^5 CFU/mL. 98 μL of the adjusted bacteria suspension was dispensed to the assay plate and pipetted 5 times.
Then the assay plates were incubated for 20 hours at 35±2° C. in ambient air with humidity. Following incubation, MIC […] value, the lowest concentration of drug that inhibits visible growth of the microorganism, was recorded by visual judgment of bacterial growth through magnification mirror of MIC reader, and the assay plates were photographed with Qcount system as image raw data. Meanwhile, the D600 of assay plates was recorded with SpectraMax Plus384 as GD raw data.

[3] = 90% growth inhibitory concentration, Acinetobacter baumannii ATCC17961, Iso-Sensitest broth, OD 600 nm over 16 h
[4] = Acinetobacter baumannii ATCC17978, CAMHB medium, 20 hours at 35±2° C., visual reading
[5] = Acinetobacter baumannii, ATCC17978, 20 h

IC90 [1, 3] [nM]	MIC [2, 4] [µM]	SMILES	IC90 [1] [nM]	MIC [2, 5] [µM]
185	0.66	CO[C@H]1CCCC[C@@H]1NC(=O)Cn1cc(-c2ccc(-c3cnc(C(=O)Nc4ccc(C(=O)N5CCN(C(=O)C6CC[N+](C)(C)CC6)CC5)c(Cl)c4)n3C)c(F)c2F)c(C)n1 (racemic) [Example G32, N-[3-chloro-4-[4-(1,1-dimethylpiperidin-1-ium-4-carbonyl)piperazine-1-carbonyl]phenyl]-5-[2,3-difluoro-4-[1-[2-[[(1S,2S)-2-methoxycyelohexyl]amino]-2-oxo-ethyl]-3-methyl-pyrazol-4-yl]phenyl]-1-methyl-imidazole-2-carboxamide; formate]	–	–
97	1.19	COCCn1cc(-c2ccc(-c3cnc(C(=O)Nc4ccc(C(=O)N5CCN(C(=O)C6CC[N+](C)(C)CC6)CC5)c(Cl)c4)n3C)c(F)c2F)c(Cl)n1 [Example F30, N-[3-chloro-4-[4-(1,1-dimethylpiperidin-1-ium-4-carbonyl)piperazine-1-carbonyl]phenyl]-5-[4-[3-chloro-1-(2-methoxyethyl)pyrazol-4-yl]-2,3-difluoro-phenyl]-1-methyl-imidazole-2-carboxamide; formate]	–	–
1520	2.5	COCCn1cc(-c2ccc(-c3cnc(C(=O)Nc4ccc(C(=O)N5CCN(C(=O)C6CC[N+](C)(C)CC6)CC5)c(Cl)c4)n3C)c(F)c2F)c(-c2ccccc2)n1 [Example F49, N-[3-chloro-4-[4-(1,1-dimethylpiperidin-1-ium-4-carbonyl)piperazine-1-carbonyl]phenyl]-5-[2,3-difluoro-4-[1-(2-methoxyethyl)-3-phenyl-pyrazol-4-yl]phenyl]-1-methyl-imidazole-2-carboxamide; formate]	–	–
110	0.6	COCCn1ncc(-c2ccc(-c3c(Cl)nc(C(=O)Nc4ccc(C(=O)N5CCN(C(=O)C6CC[N+](C)(C)CC6)CC5)c(Cl)c4)n3C)c(F)c2F)c1C [Example F53, 4-chloro-N-[3-chloro-4-[4-(1,1-dimethylpiperidin-1-ium-4-carbonyl)piperazine-1-carbonyl]phenyl]-5-[2,3-difluoro-4-[1-(2-methoxyethyl)-5-methyl-pyrazol-4-yl]phenyl]-1-methyl-imidazole-2-carboxamide; formate]	–	–
432	2.32	Cn1c(-c2ccc(-c3cn[nH]c3-c3ccccn3)c(F)c2F)cnc1C(=O)Nc1ccc(C(=O)N2CCN(C(=O)C3CC[N+](C)(C)CC3)CC2)c(Cl)c1 [Example I1, N-[3-chloro-4-[4-(1,1-dimethylpiperidin-1-ium-4-carbonyl)piperazine-1-carbonyl]phenyl]-5-[2,3-difluoro-4-[5-(2-pyridyl)-1H-pyrazol-4-yl]phenyl]-1-methyl-imidazole-2-carboxamide; formate]	–	–
608	2.41	COc1ccc(-c2[nH]ncc2-c2ccc(-c3cnc(C(=O)Nc4ccc(C(=O)N5CCN(C(=O)C6CC[N+](C)(C)CC6)CC5)c(Cl)c4)n3C)c(F)c2F)cc1 [Example I2, N-[3-chloro-4-[4-(1,1-dimethylpiperidin-1-ium-4-carbonyl)piperazine-1-carbonyl]phenyl]-5-[2,3-difluoro-4-[5-(4-methoxyphenyl)-1H-pyrazol-4-yl]phenyl]-1-methyl-imidazole-2-carboxamide; formate]	–	–
398	1.81	COc1cccc(-c2[nH]ncc2-c2ccc(-c3cnc(C(=O)Nc4ccc(C(=O)N5CCN(C(=O)C6CC[N+](C)(C)CC6)CC5)c(Cl)c4)n3C)c(F)c2F)c1 [Example I3, N-[3-chloro-4-[4-(1,1-dimethylpiperidin-1-ium-4-carbonyl)piperazine-1-carbonyl]phenyl]-5-[2,3-difluoro-4-[5-(3-methoxyphenyl)-1H-pyrazol-4-yl]phenyl]-1-methyl-imidazole-2-carboxamide; formate]	–	–

Continued, compound first:

SMILES	IC90 [1, 3] [nM]	MIC [2, 4] [µM]	IC90 [1] [nM]	MIC [2, 5] [µM]
COCCn1nc(C)c(-c2ccc(-c3cnc(C(=O)Nc4ccc(C(=O)N5CCN(C(=O)C6CC[N+](C)(C)CC6O)CC5)c(Cl)c4)n3C)c(F)c2F)c1C (centres unmarked) [Example D4, N-[3-chloro-4-[4-(3-hydroxy-1,1-dimethyl-piperidin-1-ium-4-carbonyl)piperazine-1-carbonyl]phenyl]-5-[2,3-difluoro-4-[1-(2-methoxyethyl)-3,5-dimethyl-pyrazol-4-yl]phenyl]-1-methyl-imidazole-2-carboxamide; formate]	178	1.56	–	–
COCCn1cc(-c2ccc(-c3cnc(C(=O)Nc4ccc(C(=O)N5CCN(C(=O)C[N+]6(C)CCC(O)(CO)CC6)CC5)c(Cl)c4)n3C)c(F)c2F)c(C)n1 (centres unmarked) [Example D18, N-[3-chloro-4-[4-[2-[4-hydroxy-4-(hydroxymethyl)-1-methyl-piperidin-1-ium-1-yl]acetyl]piperazine-1-carbonyl]phenyl]-5-[2,3-difluoro-4-[1-(2-methoxyethyl)-3-methyl-pyrazol-4-yl]phenyl]-1-methyl-imidazole-2-carboxamide; formate]	58	1.23	–	–
COCCn1cc(-c2ccc(-c3cnc(C(=O)Nc4ccc(C(=O)N5CCN(C(=O)C6CCNCC6O)CC5)c(C)c4)n3C)c(F)c2F)c(C)n1 (centres unmarked) [Example D22, 5-[2,3-difluoro-4-[1-(2-methoxyethyl)-3-methyl-pyrazol-4-yl]phenyl]-N-[4-[4-(3-hydroxypiperidine-4-carbonyl)piperazine-1-carbonyl]-3-methyl-phenyl]-1-methyl-imidazole-2-carboxamide; formic acid]	–	–	199	1.1 (≈ 0.775 µg/mL)
COCCn1ncc(-c2ccc(-c3cnc(C(=O)Nc4ccc(C(=O)N5CCN(C(=O)C6CCCN6)CC5)c(Cl)c4)n3C)c(F)c2F)c1C (centres unmarked) [Example D29, N-[3-chloro-4-[4-(pyrrolidine-2-carbonyl)piperazine-1-carbonyl]phenyl]-5-[2,3-difluoro-4-[1-(2-methoxyethyl)-5-methyl-pyrazol-4-yl]phenyl]-1-methyl-imidazole-2-carboxamide; 2,2,2-trifluoroacetic acid]	< 20	0.45 (≈ 0.313 µg/mL)	–	–
COCCn1cc(-c2ccc(-c3cnc(C(=O)Nc4ccc(C(=O)N5CCN(C(=O)C6CC[N+](C)(C)CC6)CC5)c(Cl)c4)n3C)c(F)c2F)c(CF)n1 [Example F29, N-[3-chloro-4-[4-(1,1-dimethylpiperidin-1-ium-4-carbonyl)piperazine-1-carbonyl]phenyl]-5-[2,3-difluoro-4-[3-(fluoromethyl)-1-(2-methoxyethyl)pyrazol-4-yl]phenyl]-1-methyl-imidazole-2-carboxamide; chloride]	280	4.73	–	–
Cc1nn(CC(=O)NC2CCC[N+](C)(C)C2)cc1-c1ccc(-c2cnc(C(=O)Nc3ccc(C(=O)N4CCN(C(=O)C5CC[N+](C)(C)CC5)CC4)c(Cl)c3)n2C)c(F)c1F (centres unmarked) [Example G24, N-[3-chloro-4-[4-(1,1-dimethylpiperidin-1-ium-4-carbonyl)piperazine-1-carbonyl]phenyl]-5-[4-[1-[2-[0,1-dimethylpiperidin-1-ium-3-yl)amino]-2-oxo-ethyl]-3-methyl-pyrazol-4-yl]-2,3-difluoro-phenyl]-1-methyl-imidazole-2-carboxamide; diformate]	–	–	508	3.85
